{"source": "patent US5929027A", "about": "“Physiologically active polypeptide-containing pharmaceutical composition” (priority 1991, dated 1999)", "key": {"[1]": {"system": "calcium and phosphur in blood", "assay": "Experiment 11: blood calcium and phosphur concentration after sublingual rapidly soluble composition", "type": "in vivo", "details": "Beagle dog, tartaric acid 10 w/v % + S-570 2 w/v %, FIG. 8", "source_text": "The results are shown in the accompanying FIG. 8."}, "[2]": {"details": "Beagle dog, sublingual, tartaric acid 10 w/v % + S-570 2 w/v %, FIG. 8"}, "in vivo": {"assay": "in vivo", "details": "male, Beagle, dog, serum, 1 mg, Maximum blood concentration of human calcitonin in average (pg/ml), sublingual rapidly soluble composition", "method": "Each one of the test material was administered by a sublingual route to a male Beagle dog which fasted over-night, and the blood was collected at intervals (after 10, 20, 30, 45 and 60 minutes). After the serum was separated, the calcium concentration in serum was measured with Calcium C kit (manufactured by Wako Junyaku K. K., Japan) (n=3).\nIn the same manner as in Experiment 8, the test material was administered to the dog, and the blood was collected at intervals. After the serum was separated, the human calcitonin concentration in serum was measured by RIA."}}, "data": [{"smiles": "CC[C@H](C)[C@H](NC(=O)[C@H](C)NC(=O)[C@@H](NC(=O)[C@H](CCC(N)=O)NC(=O)[C@@H]1CCCN1C(=O)[C@H](Cc1ccccc1)NC(=O)[C@@H](NC(=O)[C@H](Cc1c[nH]cn1)NC(=O)[C@H](Cc1ccccc1)NC(=O)[C@H](CCCCN)NC(=O)[C@H](CC(N)=O)NC(=O)[C@H](Cc1ccccc1)NC(=O)[C@H](CC(=O)O)NC(=O)[C@H](CCC(N)=O)NC(=O)[C@@H](NC(=O)[C@H](Cc1ccc(O)cc1)NC(=O)[C@@H](NC(=O)CNC(=O)[C@H](CC(C)C)NC(=O)[C@H](CCSC)NC(=O)[C@@H]1CSSC[C@H](N)C(=O)NCC(=O)N[C@@H](CC(N)=O)C(=O)N[C@@H](CC(C)C)C(=O)N[C@@H](CO)C(=O)N[C@@H]([C@@H](C)O)C(=O)N1)[C@@H](C)O)[C@@H](C)O)[C@@H](C)O)[C@@H](C)O)C(=O)NCC(=O)N[C@H](C(=O)NCC(=O)N[C@@H](C)C(=O)N1CCC[C@H]1C(N)=O)C(C)C", "note": "[human calcitonin]", "values": [{"measurement": "concentration of calcium in blood", "setting": "[1]", "value": "lowered"}, {"measurement": "concentration of phosphur in blood", "setting": "[1]", "value": "lowered"}, {"measurement": "blood human calcitonin concentration", "setting": "[2]", "value": "increase"}, {"measurement": "Cmax", "setting": "in vivo; S-970 1.0 w/v %, citric acid 2.0 w/v %", "value": 0.086, "unit": "ng/mL"}, {"measurement": "Cmax", "setting": "in vivo; S-970 2.5 w/v %, citric acid 5.0 w/v %", "value": 0.191, "unit": "ng/mL"}, {"measurement": "Cmax", "setting": "in vivo; S-970 5.0 w/v %, citric acid 10.0 w/v %", "value": 1.12, "unit": "ng/mL"}, {"measurement": "Cmax", "setting": "in vivo; S-970 10.0 w/v %, citric acid 20.0 w/v %", "value": 1.65, "unit": "ng/mL"}]}]}
